Results published in patent publication US8445504B2, “Tricyclic pyrazolopyrimidine derivatives” (Daiichi Sankyo Company, Limited, priority 2009, dated 2013).

Experiments:
[1] = system: human lung cancer cell line NCI-H460; test: Cell growth inhibition assay (MTT), NCI-H460; format: cell-based; settings: NCI-H460, 72 hours
Procedure: (§1) A cell growth inhibition assay was performed using two types of cells (human breast cancer cell line SK-BR-3 and human lung cancer cell line NCI-H460).
(§2) Cells of each type were suspended in a medium and seeded into a 96-well multi-well plate at 2000 cells/150 μL/well in the case of SK-BR-3 and at 500 cells/150 μL/well in the case of NCI-H460. The test compound was dissolved in DMSO, and this was diluted with medium to prepare a sample solution (DMSO concentration: 0.5% or less). On the day following the seeding, 50 μL of DMSO-containing medium to which the test compound was not added (hereinafter called DMSO diluted solution; DMSO concentration: 0.5% or less) or 50 μL of the sample solution was further added to the cells. An MTT assay was performed immediately after and 72 hours after adding the sample solution or the DMSO diluted solution to the cells. The MTT assay was performed as follows.
(§3) 5 mg/mL of an MTT (3-(4,5-dimethylthiazol-2-yl)-2,5-diphenyltetrazolium bromide) solution was added at 20 μL per well. Thereafter, the plate was incubated at 37° C. in 5% CO2 for four hours. The plate was centrifuged at 1200 rpm for five minutes, and then the culture supernatant was removed by suction using a dispenser. DMSO was added at 150 μL per well, and the generated formazan was dissolved. The plate was stirred using a plate mixer to uniformly color the respective wells. The absorbance of each well was measured using a plate reader at an OD of 540 nm with a reference of 660 nm.
(§4) T/C (%) for each concentration was determined by the following calculation formula and a dose-response curve was drawn to calculate the 50% growth inhibitory concentration (GI50 value), based on the assumption that the OD value measured immediately after adding the sample solution was S, the OD value measured 72 hours after adding the sample solution was T, and the OD value measured 72 hours after adding the DMSO diluted solution was C. T/C (%)=(T−S)/(C−S)×100 The results are shown below.

[2] = system: human breast cancer cell line SK-BR-3; test: Cell growth inhibition assay (MTT), SK-BR-3; format: cell-based; settings: SK-BR-3, 72 hours
Procedure: as §1, §2, §3, §4

CYP3A4 = CYP3A4 (Homo sapiens, UniProt P08684); test: in vitro; settings: microsomes, pH 7.4
Procedure: Appropriate amounts of such test compound, substrate, target to be measured, and positive control were weighed. They were dissolved in DMSO, and were then diluted with acetonitrile, as appropriate.
180 μl of a reaction solution prepared by mixing the following (1) to (5) had previously been warmed at 37° C. for 10 minutes:
(1) Potassium phosphate buffer (pH 7.4; final concentration: 50 mM)
(3) Midazolam (final concentration: 2.5 μM)
(5) Human hepatic microsome (final concentration: 0.05 mg-P/ml)
20 μl of the NADPH Regeneration System (solution A/solution B/purified water=5/1/4) was added to this reaction solution, and the reaction was initiated. The mixture was incubated for 10 minutes. Thereafter, 50 μl of the reaction solution was sampled, and it was then added to 200 μl of acetonitrile, followed by the termination of the reaction. Further, 50 μl of an acetonitrile solution containing an internal standard substance was added to the reaction solution.
In order to remove proteins from this sample, the reaction solution was transferred to a 96-Well Collection Plate (Waters) using Captiva (registered trademark) (GL Sciences). This sample solution was defined as a sample used for the assay of LC-MS/MS.
Samples of 1′-Hydroxymidazolam having known concentrations (final concentrations: 0 to 5 μM; total 5 points) were prepared, separately. A calibration curve used for assay was prepared, and the concentration of 1′-Hydroxymidazolam in the sample was assayed. This reaction was carried out in a duplicated manner.
The amount of 1′-Hydroxymidazolam generated in the negative control was defined as 100%, and the ratio of the amount of this compound generated by addition of each compound was then calculated. Thus, the inhibition value of CYP3A4 was obtained.

[3] = target: T1, recombinant yeast Hsp90 protein (rHsp90) (Saccharomyces cerevisiae, UniProt P02829); test: Hsp90 ATPase assay; format: biochemical; settings: at a concentration of 2 μM; 100 μM ATP, 37° C., two hours; read-out: ATPase inhibitory activity
T1 construct: made in house; host or cells: Escherichia coli
Procedure: An Hsp90 ATPase assay was performed using a recombinant yeast Hsp90 protein (hereinafter called rHsp90). Yeast Hsp90 DNA was cloned from a yeast genomic DNA library according to a conventional method. The cloned yeast Hsp90 DNA was incorporated into a plasmid for expression in Escherichia coli, and the plasmid was expressed in Escherichia coli to obtain rHsp90.
The test compound was dissolved in DMSO to 10 mM. The dissolved solution was diluted with DMSO to two concentrations, 1 mM and 0.2 mM. Each diluted solution was further 10-fold diluted with an assay buffer (100 mM Tris, pH 7.4, 20 mM KCl, 6 mM MgCl2) (concentration of each test compound solution: 100 μM and 20 μM; DMSO concentration: 10%).
rHsp90 was dissolved in a TE buffer (20 mM Tris, pH 7.4, 1 mM EDTA) to a concentration of 2.531 mg/mL. The solution was diluted with an assay buffer to 125 μg/mL and dispensed to a 96-well assay plate at 40 μL per well (final concentration: 100 μg/mL).
The test compound solution was dispensed at 5 μL per well, and then the solutions in the respective wells were mixed using a plate mixer. 100 mM ATP (Sigma, Catalog No. A-7699) was diluted with an assay buffer to 1 mM and dispensed at 5 μL per well (final concentration: 100 μM). The solutions in the respective wells were mixed using a plate mixer, and then the assay plate was allowed to stand in an incubator set at 37° C. for two hours.
BIOMOL GREEN Reagent (BIOMOL, Catalog No. AK-111) was dispensed at 100 μL per well, and the reaction was terminated. The solutions in the respective wells were mixed using a plate mixer, and then 34% sodium citrate was dispensed at 10 μL per well. The solutions in the respective wells were mixed using a plate mixer, and then the assay plate was left to stand at room temperature for 30 minutes. The absorbance at 650 nm of each well was measured using SpectramaxPLUS (Molecular Devices).
The ratio of the absorbance of the test compound-added group to the absorbance of the test compound-free group (T/C value) was determined by the following calculation formula, based on the assumption that the absorbance of the well to which the test compound and rHsp90 were added was A, the absorbance of the well to which only rHsp90 was added was B, and the absorbance of the well to which neither the test compound nor rHsp90 was added was C. The calculation was carried out using Softmax Pro 4.6 (Molecular Devices). Furthermore, an inhibition rate (%) was calculated using the following calculation formula: T/C=(A−C)/(B−C)

T1 sequence (P02829 whole entry): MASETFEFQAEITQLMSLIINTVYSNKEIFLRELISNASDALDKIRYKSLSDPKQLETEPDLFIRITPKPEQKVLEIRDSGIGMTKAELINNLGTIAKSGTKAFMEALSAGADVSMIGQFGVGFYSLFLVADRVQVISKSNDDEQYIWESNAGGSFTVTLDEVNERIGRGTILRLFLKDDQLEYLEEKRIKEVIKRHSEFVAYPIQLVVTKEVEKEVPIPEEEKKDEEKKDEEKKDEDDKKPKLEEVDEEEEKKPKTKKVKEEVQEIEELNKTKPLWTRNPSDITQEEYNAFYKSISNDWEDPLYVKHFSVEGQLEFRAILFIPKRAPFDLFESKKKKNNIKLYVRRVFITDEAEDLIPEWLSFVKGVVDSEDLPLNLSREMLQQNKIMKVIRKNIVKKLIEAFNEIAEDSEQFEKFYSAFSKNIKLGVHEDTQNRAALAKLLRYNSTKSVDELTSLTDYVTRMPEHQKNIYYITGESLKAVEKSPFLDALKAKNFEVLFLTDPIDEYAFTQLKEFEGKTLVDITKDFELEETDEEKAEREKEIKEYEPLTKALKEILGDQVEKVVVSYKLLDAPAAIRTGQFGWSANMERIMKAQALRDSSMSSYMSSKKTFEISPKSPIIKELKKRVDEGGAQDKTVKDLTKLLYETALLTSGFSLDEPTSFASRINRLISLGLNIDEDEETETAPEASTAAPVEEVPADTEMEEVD
Chain of CYP3A4 (P08684 whole entry): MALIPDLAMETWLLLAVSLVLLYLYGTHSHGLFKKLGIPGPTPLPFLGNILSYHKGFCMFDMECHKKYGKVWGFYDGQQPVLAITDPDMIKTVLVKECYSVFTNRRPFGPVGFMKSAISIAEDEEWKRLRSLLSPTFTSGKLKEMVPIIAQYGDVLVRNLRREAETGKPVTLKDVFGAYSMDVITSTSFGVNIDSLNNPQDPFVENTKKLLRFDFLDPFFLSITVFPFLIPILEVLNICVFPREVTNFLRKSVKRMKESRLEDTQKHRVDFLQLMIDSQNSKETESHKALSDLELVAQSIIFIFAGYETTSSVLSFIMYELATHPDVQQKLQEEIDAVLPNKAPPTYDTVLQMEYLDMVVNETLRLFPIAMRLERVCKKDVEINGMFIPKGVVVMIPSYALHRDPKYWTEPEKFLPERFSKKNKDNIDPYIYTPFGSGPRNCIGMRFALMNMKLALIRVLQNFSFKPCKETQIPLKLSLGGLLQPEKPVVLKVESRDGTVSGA

## COc1c(C)cnc(Cn2nc3c4c(nc(N)nc42)SCC(CC(N)=O)=C3)c1Br [Compound 4, 2-{4-Amino-2-[(3-bromo-4-methoxy-5-methylpyridin-2-yl)methyl]-2,7-dihydro-6-thia-1,2,3,5-tetraazabenzo[cd]azulen-8-yl}acetamide mesilate]
[1]
  GI50: 22 nM
[2]
  GI50: 11 nM
CYP3A4
  inhibition at 10 min, 10 μM: 43%
[3]
  inhibition at 2 µM: ≥ 50%

## COc1ccnc(Cn2nc3c4c(nc(N)nc42)SCC(C(=O)NCC(F)F)=C3)c1Cl [Compound 6, 4-Amino-2-[(3-chloro-4-methoxypyridin-2-yl)methyl]-N-(2,2-difluoroethyl)-2,7-dihydro-6-thia-1,2,3,5-tetraazabenzo[cd]azulen-8-carboxamide]
[1]
  GI50: 110 nM
[2]
  GI50: 45 nM
CYP3A4
  inhibition at 10 min, 10 μM: -18%
[3]
  inhibition at 2 µM: ≥ 50%

## CNC(=O)CC1=Cc2nn(Cc3ncc(C)c(OC)c3Br)c3nc(N)nc(c23)SC1 [Compound 3, 2-{4-Amino-2-[(3-bromo-4-methoxy-5-methylpyridin-2-yl)methyl]-2,7-dihydro-6-thia-1,2,3,5-tetraazabenzo[cd]azulen-8-yl}-N-methylacetamide]
[1]
  GI50: 30 nM
[2]
  GI50: 14 nM
CYP3A4
  inhibition at 10 min, 10 μM: 5%
[3]
  inhibition at 2 µM: ≥ 50%

## CNC(=O)CC1=Cc2nn(Cc3ncc(F)c(OC)c3C)c3nc(N)nc(c23)SC1 [Compound 2, 2-{4-Amino-2-[(5-fluoro-4-methoxy-3-methylpyridin-2-yl)methyl]-2,7-dihydro-6-thia-1,2,3,5-tetraazabenzo-[cd]azulen-8-yl}-N-methylacetamide]
[1]
  GI50: 90 nM
[2]
  GI50: 39 nM
CYP3A4
  inhibition at 10 min, 10 μM: 58%
[3]
  inhibition at 2 µM: ≥ 50%

## COc1c(C)cnc(Cn2nc3c4c(nc(N)nc42)SCC(CC(=O)NCCF)=C3)c1Cl [Compound 5, 2-{4-Amino-2-[(3-chloro-4-methoxy-5-methylpyridin-2-yl)methyl]-2,7-dihydro-6-thia-1,2,3,5-tetraazabenzo[cd]azulen-8-yl}-N-(2-fluoroethyl)acetamide]
[1]
  GI50: 36 nM
[2]
  GI50: 16 nM
CYP3A4
  inhibition at 10 min, 10 μM: 66%
[3]
  inhibition at 2 µM: ≥ 50%

## CNC(=O)CC1=Cc2nn(Cc3ncc(C)c(OC)c3Cl)c3nc(N)nc(c23)SC1 [Compound 1, 2-{4-Amino-2-[(3-chloro-4-methoxy-5-methylpyridin-2-yl)methyl]-2,7-dihydro-6-thia-1,2,3,5-tetraazabenzo[cd]azulen-8-yl}-N-methylacetamide]
[1]
  GI50: 26 nM
[2]
  GI50: 13 nM
CYP3A4
  inhibition at 10 min, 10 μM: 15%
[3]
  inhibition at 2 µM: ≥ 50%
